Assay results from patent publication US20030176483A1, “Topical synergistic microbicide” (priority 2002, published 2003).

Experiments:
Vero cells [1] = assay: Cell death seen in the HSV inactivation plaque assays; type: cell-based, African green monkey; conditions: concentration 0.005%
Description: HSV G and F strains were diluted to 200 pfu/ml with 5% MEM, respectively. […] Equal volumes of diluted virus and drugs were mixed and incubated at 37° C. water-bath for 1 h. One ml of the mixture was then used to infect confluent Vero cells in 6-well plates at 37° C. for 1 h. After infection, viral inoculum was removed and the cells washed with PBS. The cells were subsequently overlaid with 1.5 ml of 0.5% methylcellullose (diluted from 1% stock with 2×culture medium) for plaque assay.

Vero cells [2] = assay: Cytotoxicity, neutral red uptake assay; type: cell-based, African green monkey; conditions: after 2 days' incubation, data not shown
Description: Culture medium was removed from confluent Vero cells in 24-well plates. The cells were then washed once with PBS. […] Cells were incubated at 37° C. for 1 h, 6 h, 2 and 3 days. At each time point, the medium was removed and cells washed with PBS. 500 μl of 0.01% neutral red (in PBS) was added to each well, and the samples were incubated at 37° C. for 30 min. The dye was then removed and the cells washed×2 with 1 ml PBS per well. The dye was extracted by addition of 500 μl of 50% ethanol/1% glacial acetic acid in PBS to each well and incubated at room temperature for 15 min with gentle shaking at 120-150 rpm. 200 μl extracted dye from each well was put into 96-well plate and the absorbance at 550 nm was read on an ELISA reader.

HSV-1 (strain F) = assay: Inactivation of HSV-1 by pre-mixing with drug, plaque reduction assay; type: cell-based, herpes simplex virus; conditions: concentration 0.005%, pre-mixing for 1 h
Description: (§1) HSV strains G (HSV-2) and F (HSV-1) were used in the experiments. A HSV susceptible cell line, Vero cells (African green monkey kidney cell), was used in the virus yield reduction assays. The culture medium for Vero cells was 5% minimum essential medium (MEM; GIBCO/BRL) supplemented with 5% fetal bovine serum, 100 U/ml penicillin and 100 μg/ml streptomycin).
(§2) Confluent cells were washed with PBS and subsequently infected with HSV for 1 h at 37° C. After viral inoculum was removed, the infected cells were washed with PBS and overlaid with 0.5% methylcellulose in culture medium. Cells were incubated at 37° C. for 2 days for HSV-2 infection and 3 days for HSV-1. When plaque size was adequate, cells were fixed with 10% formalin for […]. Monolayers were subsequently stained with 0.5% crystal violet for 10 min, and dye was removed by washing with tap water.
(§3) All data were generated from duplicate or triplicate experiments. Effects of compounds at varying concentrations were expressed as % of control (the mean plaque counts in drug treated wells/the mean plaque counts in control wells).
(§4) HSV G and F strains were diluted to 200 pfu/ml with 5% MEM, respectively. […] Equal volumes of diluted virus and drugs were mixed and incubated at 37° C. water-bath for 1 h. One ml of the mixture was then used to infect confluent Vero cells in 6-well plates at 37° C. for 1 h. […]

HSV-2 (strain G) = assay: Inactivation of HSV-2 by pre-mixing with drug, plaque reduction assay; type: cell-based, herpes simplex virus; conditions: concentration 0.005%, pre-mixing for 1 h
Description: as §1, §2, §3, §4

[3] = test system: HSV-2 thymidine kinase mutant Delta 333; assay: Inactivation of drug-resistant HSV-2 TK mutant, plaque reduction assay; type: cell-based, herpes simplex virus; conditions: 37° C. for 1 h, concentration not given

**Q.** Which results are given for `CCCCCCCCCCCCOS(=O)(=O)[O-].[Na+]` [SDS]?
**A.** cell death (Vero cells [1]): 50%; CC50 (cytotoxic concentration giving 50% of cell death) (Vero cells [2]): approximately 0.005%; inactivation of HSV-1 (HSV-1 (strain F)): effective; inactivation of HSV-2 (HSV-2 (strain G)): effective; inactivation of delta 333 [3]: capable of inactivating
